Data on 25 substances can be found in the OligoGym collection.

HELM strings list units from the 5' end as sugar, base in round brackets, then linkage (d deoxyribose, r ribose, m 2'-O-methyl, p phosphodiester). Strings are as the collection lists them; they lack the last nucleoside at the 3' end of the tested compound. [moe] = 2'-O-(2-methoxyethyl) (MOE); [sp] = phosphorothioate linkage; [m5C] = 5-methylcytosine

This data set addresses UBE3A-ATS. The data set is described as follows: mouse, dose not given. As to conditions: ASO.
On to “RNA1{[moe]([m5C])[sp].[moe](T)p.[moe](G)p.[moe](T)p.[moe](A)p.d(A)[sp].d(G)[sp].d(T)[sp].d(A)[sp].d(T)[sp].d(A)[sp].d(G)[sp].d(A)[sp].d(T)[sp].d(G)[sp].[moe]([m5C])p.[moe]([m5C])p.[moe](T)[sp].[moe]([m5C])}$$$$ (last 3' nucleoside missing)”, for which the 3 h FOB score came to 3.2 score 0-7.

In the case of “RNA1{[moe](A)[sp].[moe](A)p.[moe](G)p.[moe](T)p.[moe](A)p.d(T)[sp].d(A)[sp].d(G)[sp].d(A)[sp].d(T)[sp].d(G)[sp].d([m5C])[sp].d([m5C])[sp].d(T)[sp].d([m5C])[sp].[moe](T)p.[moe]([m5C])p.[moe]([m5C])[sp].[moe](T)}$$$$ (last 3' nucleoside missing)”, the 3 h FOB score was determined as 4 score 0-7.

Substance “RNA1{[moe](T)[sp].[moe](A)p.[moe](G)p.[moe](A)p.[moe](T)p.d(T)[sp].d(G)[sp].d(G)[sp].d(G)[sp].d([m5C])[sp].d(T)[sp].d(T)[sp].d(T)[sp].d(A)[sp].d(G)[sp].[moe](A)p.[moe](G)p.[moe](G)[sp].[moe](T)}$$$$ (last 3' nucleoside missing)” showed a 3 h FOB score of 5 score 0-7.

“RNA1{[moe](G)[sp].[moe]([m5C])p.[moe](A)p.[moe](T)p.d(A)[sp].d([m5C])[sp].d([m5C])[sp].d([m5C])[sp].d(A)[sp].d(G)[sp].d(G)[sp].d(G)[sp].d(T)[sp].d(A)[sp].[moe](G)p.[moe](G)p.[moe](A)p.[moe](T)[sp].[moe](T)}$$$$ (last 3' nucleoside missing)” yielded a 3 h FOB score of 1 score 0-7.

For the substance “RNA1{[moe](A)[sp].[moe](T)p.[moe](T)p.[moe](G)p.[moe](G)p.[moe](T)p.d([m5C])[sp].d(A)[sp].d(T)[sp].d([m5C])[sp].d(T)[sp].d([m5C])[sp].d(G)[sp].d(G)[sp].d(G)[sp].d(T)[sp].[moe](A)p.[moe](T)[sp].[moe](A)}$$$$ (last 3' nucleoside missing)”, the 3 h FOB score stood at 4 score 0-7.

As for “RNA1{[moe](T)[sp].[moe]([m5C])p.[moe](A)p.[moe](A)p.[moe]([m5C])p.d([m5C])[sp].d(A)[sp].d(A)[sp].d(T)[sp].d(T)[sp].d(T)[sp].d(G)[sp].d([m5C])[sp].d(T)[sp].d(A)[sp].[moe](T)p.[moe](T)p.[moe]([m5C])[sp].[moe](A)}$$$$ (last 3' nucleoside missing)”, the 3 h FOB score came out at 2 score 0-7.

Take “RNA1{[moe](T)[sp].[moe](G)p.[moe]([m5C])p.[moe](T)p.d(G)[sp].d(A)[sp].d(T)[sp].d([m5C])[sp].d(A)[sp].d([m5C])[sp].d(A)[sp].d(T)[sp].d(T)[sp].d(A)[sp].[moe]([m5C])p.[moe]([m5C])p.[moe]([m5C])p.[moe](A)[sp].[moe](T)}$$$$ (last 3' nucleoside missing)”: the 3 h FOB score stood at 0 score 0-7.

Take “RNA1{[moe]([m5C])[sp].[moe](A)p.[moe](T)p.[moe]([m5C])p.[moe](T)p.d([m5C])[sp].d(G)[sp].d(G)[sp].d(G)[sp].d(T)[sp].d(A)[sp].d(T)[sp].d(A)[sp].d(T)[sp].d(A)[sp].[moe](A)p.[moe](A)p.[moe](T)[sp].[moe](T)}$$$$ (last 3' nucleoside missing)”: the 3 h FOB score stood at 2 score 0-7.

Consider “RNA1{[moe](G)[sp].[moe](A)p.[moe]([m5C])p.[moe](T)p.[moe](A)p.d([m5C])[sp].d(T)[sp].d(T)[sp].d([m5C])[sp].d(A)[sp].d(A)[sp].d([m5C])[sp].d([m5C])[sp].d(T)[sp].d(G)[sp].[moe](A)p.[moe](T)p.[moe](A)[sp].[moe]([m5C])}$$$$ (last 3' nucleoside missing)”, for which the 3 h FOB score was found to be 2 score 0-7.

Substance “RNA1{[moe]([m5C])[sp].[moe](T)p.[moe](T)p.[moe](T)p.[moe](A)p.d(T)[sp].d(A)[sp].d([m5C])[sp].d(T)[sp].d(T)[sp].d(T)[sp].d(A)[sp].d([m5C])[sp].d([m5C])[sp].d([m5C])[sp].[moe](A)p.[moe](A)p.[moe]([m5C])[sp].[moe](T)}$$$$ (last 3' nucleoside missing)” gave a 3 h FOB score of 0 score 0-7.

Regarding “RNA1{[moe](T)[sp].[moe](T)p.[moe](A)p.[moe](G)p.[moe](G)p.[moe](T)p.d([m5C])[sp].d(A)[sp].d(A)[sp].d([m5C])[sp].d([m5C])[sp].d(A)[sp].d(A)[sp].d(T)[sp].d(T)[sp].d(T)[sp].[moe](G)p.[moe]([m5C])[sp].[moe](T)}$$$$ (last 3' nucleoside missing)”, the 3 h FOB score came out at 0 score 0-7.

“RNA1{[moe](G)[sp].[moe](G)p.[moe](A)p.[moe](T)p.[moe](T)p.d(T)[sp].d(T)[sp].d(A)[sp].d(T)[sp].d(T)[sp].d(G)[sp].d(G)[sp].d(T)[sp].d([m5C])[sp].d(A)[sp].[moe](T)p.[moe]([m5C])p.[moe](T)[sp].[moe]([m5C])}$$$$ (last 3' nucleoside missing)” had a 3 h FOB score of 5 score 0-7.

In turn, “RNA1{[moe]([m5C])[sp].[moe](T)p.[moe](A)p.[moe](A)p.[moe](A)p.d(A)[sp].d(T)[sp].d([m5C])[sp].d([m5C])[sp].d(A)[sp].d(T)[sp].d(T)[sp].d(T)[sp].d(G)[sp].d(T)[sp].[moe]([m5C])p.[moe]([m5C])p.[moe](A)[sp].[moe](G)}$$$$ (last 3' nucleoside missing)” registered a 3 h FOB score of 3.3 score 0-7.

The substance “RNA1{[moe](G)[sp].[moe](A)p.[moe](T)p.[moe](A)p.[moe](G)p.d(G)[sp].d(G)[sp].d(T)[sp].d(T)[sp].d(T)[sp].d(A)[sp].d(G)[sp].d(G)[sp].d(T)[sp].d([m5C])[sp].[moe](A)p.[moe](A)p.[moe]([m5C])[sp].[moe]([m5C])}$$$$ (last 3' nucleoside missing)” returned a 3 h FOB score of 5 score 0-7.

“RNA1{[moe](T)[sp].[moe](G)p.[moe](A)p.[moe](T)p.d([m5C])[sp].d(A)[sp].d([m5C])[sp].d(A)[sp].d(T)[sp].d(T)[sp].d(A)[sp].d([m5C])[sp].d([m5C])[sp].d([m5C])[sp].[moe](A)p.[moe](T)p.[moe]([m5C])p.[moe]([m5C])[sp].[moe](G)}$$$$ (last 3' nucleoside missing)” displayed a 3 h FOB score of 1 score 0-7.

With “RNA1{[moe](G)[sp].[moe](T)p.[moe]([m5C])p.[moe](A)[sp].d(T)[sp].d([m5C])[sp].d(T)[sp].d([m5C])[sp].d(G)[sp].d(G)[sp].d(G)[sp].d(T)[sp].[moe](A)p.[moe](T)p.[moe](A)p.[moe](T)[sp].[moe](A)}$$$$ (last 3' nucleoside missing)”, the 3 h FOB score turned out to be 4.3 score 0-7.

The substance “RNA1{[moe](T)[sp].[moe](G)p.[moe]([m5C])p.[moe](A)p.[moe](T)p.d(G)[sp].d(T)[sp].d(G)[sp].d(G)[sp].d(G)[sp].d([m5C])[sp].d([m5C])[sp].d(T)[sp].d([m5C])[sp].d(T)[sp].[moe](A)p.[moe](T)p.[moe](T)[sp].[moe](A)}$$$$ (last 3' nucleoside missing)” displayed a 3 h FOB score of 4 score 0-7.

The substance “RNA1{[moe](T)[sp].[moe](T)p.[moe](G)p.[moe]([m5C])p.[moe](T)p.[moe](G)p.d(A)[sp].d(T)[sp].d([m5C])[sp].d(A)[sp].d([m5C])[sp].d(A)[sp].d(T)[sp].d(T)[sp].d(A)[sp].d([m5C])[sp].[moe]([m5C])p.[moe]([m5C])[sp].[moe](A)}$$$$ (last 3' nucleoside missing)” returned a 3 h FOB score of 1 score 0-7.

In the case of “RNA1{[moe](G)[sp].[moe](T)p.[moe](T)p.[moe]([m5C])p.[moe](T)p.d(G)[sp].d(G)[sp].d(A)[sp].d(A)[sp].d(T)[sp].d([m5C])[sp].d(T)[sp].d(T)[sp].d(G)[sp].d(T)[sp].[moe](A)p.[moe](G)p.[moe](A)[sp].[moe](G)}$$$$ (last 3' nucleoside missing)”, the 3 h FOB score turned out to be 4 score 0-7.

On to “RNA1{[moe](T)[sp].[moe]([m5C])p.[moe](A)p.[moe]([m5C])p.[moe]([m5C])p.[moe](A)p.d(T)[sp].d(T)[sp].d(T)[sp].d(T)[sp].d(G)[sp].d(A)[sp].d([m5C])[sp].d([m5C])[sp].d(T)[sp].d(T)[sp].[moe]([m5C])p.[moe](T)[sp].[moe](T)}$$$$ (last 3' nucleoside missing)”, for which the 3 h FOB score came out at 1 score 0-7.

In the case of “RNA1{[moe]([m5C])[sp].[moe](T)p.[moe](T)p.[moe]([m5C])p.[moe](A)p.d(A)[sp].d([m5C])[sp].d(T)[sp].d(A)[sp].d(A)[sp].d([m5C])[sp].d(A)[sp].d(G)[sp].d(T)[sp].d(A)[sp].[moe](T)p.[moe]([m5C])p.[moe](T)[sp].[moe](T)}$$$$ (last 3' nucleoside missing)”, the 3 h FOB score is 0 score 0-7.

Take “RNA1{[moe](A)[sp].[moe](G)p.[moe](T)p.[moe](G)p.[moe]([m5C])p.d([m5C])[sp].d(T)[sp].d(T)[sp].d(T)[sp].d([m5C])[sp].d(T)[sp].d(A)[sp].d(T)[sp].d(T)[sp].d(T)[sp].[moe]([m5C])p.[moe](A)p.[moe](G)[sp].[moe](A)}$$$$ (last 3' nucleoside missing)”: the 3 h FOB score turned out to be 0 score 0-7.

On to “RNA1{[moe](A)[sp].[moe]([m5C])p.[moe](T)p.[moe](G)p.[moe](G)p.d([m5C])[sp].d(A)[sp].d(T)[sp].d(A)[sp].d(T)[sp].d(T)[sp].d([m5C])[sp].d([m5C])[sp].d(G)[sp].d(A)[sp].[moe](T)p.[moe](T)p.[moe](A)[sp].[moe](T)}$$$$ (last 3' nucleoside missing)”, for which the 3 h FOB score came to 3 score 0-7.

In the case of “RNA1{[moe](T)[sp].[moe](T)p.[moe](G)p.[moe](G)p.[moe]([m5C])p.d(T)[sp].d(T)[sp].d(T)[sp].d(A)[sp].d(T)[sp].d(A)[sp].d([m5C])[sp].d(T)[sp].d(T)[sp].d(T)[sp].[moe](A)p.[moe]([m5C])p.[moe]([m5C])[sp].[moe]([m5C])}$$$$ (last 3' nucleoside missing)”, the 3 h FOB score is 1 score 0-7.

Turning to “RNA1{[moe]([m5C])[sp].[moe](A)p.[moe](G)p.[moe](G)p.[moe](T)p.d(G)[sp].d(T)[sp].d([m5C])[sp].d(T)[sp].d(T)[sp].d(A)[sp].d(T)[sp].d(A)[sp].d(T)[sp].d([m5C])[sp].[moe](T)p.[moe](A)p.[moe](T)[sp].[moe](G)}$$$$ (last 3' nucleoside missing)”, the 3 h FOB score worked out at 0 score 0-7.
